The values below come from patent US10975116B2, “Methods of treating and preventing gastrointestinal motility disorders using aminosterols” (Enterin, Inc., priority 2013, dated 2021).

The subject of this assay is Parkinson's-like syndrome. The assay can be described thus: Oral squalamine in Parkinson's-like syndrome without GI disorders, single subject. Format: in vivo, human. An excerpt: The individual was a person. They were a psychiatrist specializing in addiction. Movement disorder began. Original diagnosis was multiple sclerosis. Presenting symptoms were depression and difficulty in controlling the action of sitting in chair. They would “plop” onto a sit without braking the movement. […] Treatment with L-DOPA caused some correction of the sitting difficulty, leading to the presumptive diagnosis of Parkinson's disease. Therapy continued with increasing doses of Sinemet, followed by addition of ropinirole. Deterioration continued (despite an L-DOPA dose exceeding 10-11 pills/day), ropinirole (5×2 mg and 4×1 mg, daily) and amantadine was added. They were on Wellbutryn for depression. There had been no history of GI disorders, and bowel function was said to be normal.
The individual lived at home with a spouse and 2 children. They had to be driven to work. Walking was unsteady. Their speech was nearly incomprehensible. Face was mask-like. No obvious tremors. Walking was hesitant. Subject had fallen (or tripped) several times previously and used a cane.

“Also recorded” adds a separate entry of the source.

For the substance squalamine, the Observations result is “No obvious GI response. Continued” (Day 1, 100 mg cap); “articulation had become noticeably better; also recorded: improving and their energy level was increasing” (Day 21, 100 mg every other day, then began 200 mg every other day); “worst constipation they had ever remembered.”; also recorded: that he “was not feeling as good”” (Month 3, subject ran out of squalamine 2 weeks prior (cessation)); “mg every day at month 5.5. No GI; also recorded: colleagues noted improvement. Took; also recorded: several falls which they attributed” (Month 5, 100 mg every other day raised to 200 mg every day at month 5.5); “Individual could compensate being pulled; also recorded: told me that they felt their balance had improved; also recorded: Still had difficulty initiating; also recorded: No tremor; also recorded: Voice was of low; also recorded: volume. Face was still mask-like; also recorded: Once moving subject walked without; also recorded: Medication dosing had not changed” (Month 6, 200 mg every day).
